Results: US20230321284A1, “COMPOUND, CONTRAST AGENT, AND METHOD FOR PRODUCING COMPOUND” (ST. MARIANNA UNIVERSITY SCHOOL OF MEDICINE, priority 2020, published 2023)

Legend:
[1] = biological target: T1, asialoglycoprotein receptor (Homo sapiens, UniProt P07306+P07307); test: Uptake inhibition test of I-ASOR in liver cancer cell line HepG2 (Test Example 1); format: cell-based; conditions: compound 100 μg/mL, I-ASOR 6 μg/mL, 4° C. for 30 minutes, FIG. 1
T1 construct: reacted with HepG2 cells washed with ice-cold MEM (GIBCO) in 6 wells; endogenous in cells; host or cells: HepG2
T1 sequence (P07306 1-291): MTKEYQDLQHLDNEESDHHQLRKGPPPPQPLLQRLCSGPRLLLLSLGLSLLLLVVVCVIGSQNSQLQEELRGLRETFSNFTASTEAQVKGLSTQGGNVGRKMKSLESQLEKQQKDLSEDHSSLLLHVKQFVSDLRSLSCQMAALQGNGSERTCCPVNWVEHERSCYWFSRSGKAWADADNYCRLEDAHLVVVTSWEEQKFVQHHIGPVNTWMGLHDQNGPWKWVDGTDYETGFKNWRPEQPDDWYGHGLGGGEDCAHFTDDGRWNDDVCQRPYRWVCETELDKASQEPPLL
T1 sequence (P07307 1-311): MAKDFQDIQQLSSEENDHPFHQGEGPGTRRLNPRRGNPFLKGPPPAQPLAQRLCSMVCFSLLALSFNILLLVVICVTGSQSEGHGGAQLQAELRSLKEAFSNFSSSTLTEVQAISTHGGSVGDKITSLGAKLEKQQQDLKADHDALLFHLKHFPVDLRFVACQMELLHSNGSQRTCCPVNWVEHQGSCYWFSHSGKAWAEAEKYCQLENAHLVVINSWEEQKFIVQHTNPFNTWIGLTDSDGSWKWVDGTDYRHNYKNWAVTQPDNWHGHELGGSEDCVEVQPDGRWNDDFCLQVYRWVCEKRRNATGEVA
Method: RYO-1, MEG-1, and MEG-2 prepared in Examples were subjected to an uptake inhibition test, in which the uptake is performed by an asialoglycoprotein receptor specifically expressed in hepatocytes, using a liver cancer cell line HepG2 in accordance with J Gastroenterol 1998, 33, 855-859. Specifically, the test is based on the following method.
First, orosomucoid (Sigma-Aldrich Co., LLC) was converted to an asialo compound through reaction with immobilized neuraminidase (Sigma-Aldrich Co., LLC) at 37° C. for 12 hours. This asialo-orosomucoid (ASOR) was labeled with radioactive iodine (125I) by use of the chloramine-T method to prepare I-ASOR.
The obtained I-ASOR was prepared as a 6 μg/mL solution in PBS and reacted with HepG2 cells washed with ice-cold MEM (GIBCO) in 6 wells at 4° C. for 30 minutes. The cells were thoroughly washed and then lysed using 0.1 N NaOH, and radiation dose “A” taken up into the cells was measured (control sample). […]
Next, the background of nonspecific binding of I-ASOR was measured as follows in order to eliminate the influence of the nonspecific binding of I-ASOR to the cells. […] Then, the obtained cells were washed and lysed, and radiation dose “B” was measured. […]
Next, “A-B” was calculated as to each sample to calculate I-ASOR specifically taken up into HepG2. […]

[2] = system: Panc-1 cells; test: Uptake inhibition test of I-ASOR in pancreatic cancer cell line Panc-1 having no asialoglycoprotein receptor (Test Example 1); format: cell-based; conditions: compound 100 μg/mL, I-ASOR 6 μg/mL, 4° C. for 30 minutes, FIG. 2
Method: A similar experiment was conducted using a pancreatic cancer cell line Panc-1 having no asialoglycoprotein receptor. Specifically, the test is based on the following method.
I-ASOR labeled with radioactive iodine (125I) in the same manner as above was prepared as a 6 μg/mL solution in PBS and reacted with Panc-1 cells washed with ice-cold MEM (GIBCO) in 6 wells at 4° C. for 30 minutes. The cells were thoroughly washed and then lysed using 0.1 N NaOH, and radiation dose “A” taken up into the cells was measured (control sample). Similar measurement was performed by the addition of I-ASOR as well as MEG-1, MEG-2, or RYO-1 at 100 μg/mL to measure radiation dose “A” when each compound was added.
Next, the background of nonspecific binding of I-ASOR was measured as follows in order to eliminate the influence of the nonspecific binding of I-ASOR to the cells. Specifically, I-ASOR (6 μg/mL) and a 100-fold concentration (600 μg/mL) of nonlabelled ASOR were mixed and reacted with Panc-1 in the same manner as above. Then, the obtained cells were washed and lysed, and radiation dose “B” was measured. The radiation dose “B” as the background was commonly used in all of the control sample and the sample supplemented with each compound.
Next, “A-B” was calculated as to each sample to calculate I-ASOR specifically taken up into Panc-1. […]

[3] = Contrast experiment: CT imaging after tail vein injection (Test Example 3); format: in vivo; conditions: 9-week-old male ICR mouse, MEG-1 dose 52 mg/animal, images before, during, 15 minutes and 1 hour after administration
Method: A 9-week-old male ICR mouse purchased from CLEA Japan, Inc. was anesthetized by isoflurane inhalation. While the respiratory condition was monitored with DELPet μCT100 application software (DELBio, Inc.), MEG-1 was gradually administered by injection from the tail vein. The dose of MEG-1 was set to 52 mg/animal.
CT images were taken before administration, during administration, 15 minutes after administration and 1 hour after administration. Image data from the chest to the lower abdomen was reconstituted at a pixel size of […] and converted to dicom data. Further, the images were analyzed with VivoQuant software (inviCRO. LLC).
A similar test was conducted using MEG-2, MEG-4, or RYO-2 instead of MEG-1.

[4] = biological target: T1, asialoglycoprotein receptor; test: Comparison of uptake activity by asialoglycoprotein receptor among compounds in HepG2 (Test Example 2); format: cell-based; conditions: compound 1.0 mM/mL, I-ASOR 0.4 μg/mL, 37° C. for 30 minutes, FIG. 3
Method: Uptake activity by an asialoglycoprotein receptor was compared among MEG-2, MEG-4, RYO-1, and RYO-2 by use of the same method as in Test Example 1.
A PBS solution containing 0.4 μg/mL I-ASOR obtained in the same manner as in Test Example 1 and 1.0 mM/mL MEG-2, MEG-4, RYO-1, or RYO-2 was prepared and reacted with HepG2 washed with ice-cold MEM (GIBCO) in 6 wells at 37° C. for 30 minutes. The cells were thoroughly washed and then lysed using 0.1 N NaOH, and radiation dose “A” taken up into HepG2 was measured.
An experiment was conducted as a positive control in which a PBS solution containing 0.4 μg/mL I-ASOR and 1000 μg/mL nonlabelled ASOR was prepared and reacted with HepG2 washed with ice-cold MEM (GIBCO) in 6 wells at 4° C. for 30 minutes.
Next, the background of nonspecific binding of I-ASOR was measured as follows in order to eliminate the influence of the nonspecific binding of I-ASOR to the cells. Specifically, I-ASOR (0.4 μg/mL) and a 100-fold concentration (40 μg/mL) of nonlabelled ASOR were mixed and reacted with HepG2 in the same manner as above. Then, the obtained cells were washed and lysed, and radiation dose “B” was measured. The radiation dose “B” as the background was commonly used in all of the control sample, the positive control sample, and the sample supplemented with each compound.
Next, “A-B” was calculated as to each sample to calculate I-ASOR specifically taken up into HepG2. The experiment was conducted in triplicate to calculate standard deviation.

inhibitory ability on ligand uptake compared between compounds [4] | SMILES | inhibition of the uptake of the ligand (I-ASOR) in HepG2 [1] | inhibition of the uptake of the ligand (I-ASOR) in Panc-1 [2] | CT images: appearance of high-absorption liquid (excretion sites) [3] | inhibition of the uptake of the ligand (I-ASOR) in HepG2 [4]
– | CC(=O)Nc1c(I)c(NC(C)=O)c(I)c(C(=O)NCCO[C@@H]2OC(CO)[C@H](O)C(O)[C@@H]2O)c1I (stereo partly drawn) [MEG-1] | competitively inhibit the uptake of the ligand | none of RYO-1, MEG-1, and MEG-2 inhibited the uptake of the ligand | a liquid that exhibited high absorption, which was not observed before administration, was confirmed to appear over time in the intestine and in the urinary bladder | –
higher in MEG-4 than in MEG-2 | O=C(NCCOCCO[C@@H]1OC(CO)[C@H](O)[C@H](O)C1O)c1c(I)c(C(=O)NCCOCCO[C@@H]2OC(CO)[C@H](O)[C@H](O)C2O)c(I)c(C(=O)NCCOCCO[C@@H]2OC(CO)[C@H](O)[C@H](O)C2O)c1I (stereo partly drawn) [MEG-4] | – | – | a liquid that exhibited high absorption, which was not observed before administration, was confirmed to appear over time in the intestine and in the urinary bladder | competitively inhibited the uptake of the ligand in HepG2
– | CC(=O)Nc1c(I)c(NC(C)=O)c(I)c(C(=O)NCCNC(=O)[C@H](O)[C@@H](O)C(O[C@@H]2OC(CO)[C@H](O)[C@H](O)C2O)[C@@H](O)CO)c1I (stereo partly drawn) [RYO-1] | competitively inhibit the uptake of the ligand | none of RYO-1, MEG-1, and MEG-2 inhibited the uptake of the ligand | – | competitively inhibited the uptake of the ligand in HepG2
higher in RYO-2 than in RYO-1 | O=C(NCCNC(=O)[C@H](O)[C@@H](O)[C@H](O[C@@H]1O[C@H](CO)[C@H](O)[C@H](O)[C@H]1O)[C@H](O)CO)c1c(I)c(C(=O)NCCNC(=O)[C@H](O)[C@@H](O)[C@H](O[C@@H]2O[C@H](CO)[C@H](O)[C@H](O)[C@H]2O)[C@H](O)CO)c(I)c(C(=O)NCCNC(=O)[C@H](O)[C@@H](O)C(O[C@@H]2O[C@H](CO)[C@H](O)[C@H](O)[C@H]2O)[C@H](O)CO)c1I (stereo partly drawn) [RYO-2] | – | – | a liquid that exhibited high absorption, which was not observed before administration, was confirmed to appear over time in the intestine and in the urinary bladder | competitively inhibited the uptake of the ligand in HepG2
